In patent US20030153081A1, “Viral core protein-cationic lipid-nucleic acid-delivery complexes” (priority 1999, published 2003):

What was measured:
plasmid DNA (pCMVβ) = assay: gel retardation assay (DNA binding analysis)
Experimental: One microgram of pCMVβ was incubated with 0 μg (lane 2), 5 μg (lane 3), 10 μg (lane 4), 15 μg (lane 5), 20 μg (lane 6), 25 μg (lane 7) and 30 μg (lane 8) of BSA for 10 minutes at room temperature in 1× HBS. Samples were then analyzed on a 1% agarose gel for altered mobility.
When ratios of 0.5 (w/w) or greater were used, however, migration of both forms of pDNA was severely retarded.
C). The Polyomavirus protein Vp1 was much less efficient at preventing pDNA migration. pCMVβ (1 μg) was incubated with 2 μg (lane 2), 4 μg (lane 3), 6 μg (lane 4), 8 μg (lane 5), 16 μg (lane 6), 32 μg (lane 7) and 0 μg (lane 8) Vp1. Only ratios of 6 or higher (protein: pDNA, w/w) caused significant retardation of supercoiled pDNA (lane 6, lower band). Also, not until a ratio of 32 (w/w) was used was there any effect on relaxed pDNA (lane 7, upper band). In all gels lane 1 corresponds to 1 Kb DNA marker (BRL).
The purified peptides were reconstituted in sterile distilled H2O at 3 mg/mL. Peptide and pDNA were complexed in 20 μL HEPES buffered saline (137 mM NaCl, 5 mM KCl, 0.75 mM Na2HPO4, 19 mM HEPES, pH 7.4) for 20 minutes at room temperature. Peptide: pDNA complexes were subsequently analyzed by agarose gel electrophoresis (1%). Control incubations for general macromolecular pDNA interactions were performed with varying amounts of molecular biology grade purified bovine serum albumin (Sigma).
Varying amounts of purified peptide were incubated at room temperature in HBS for approximately 10 minutes and then analyzed by agarose gel electrophoresis. Without the addition of peptide, supercoiled and relaxed circular plasmid DNA (pDNA) migrated in the expected manner (FIG. 1, lane 8).

ND7 cells = assay: β-galactosidase reporter gene assay, transfection of undifferentiated ND7 cells; assay type: cell-based, rat/mouse
Experimental: ND7 cells were seeded at a density of 5 ×10^4 cells/well in 24 well culture dishes 24 hrs prior to transfection. Immediately prior to transfection, cells were washed in serum-free media. Complexes were formed by incubating pCMVβ with Mu1 prior to the addition of the cationic liposome DC-Chol/DOPE. In each case 1 μg pCMVβ was complexed with 0.6, 6, 12, and 21 μg Mu1 peptide. Each of these combinations was then complexed with 3, 4 and 6 μg DC-Chol/DOPE. ND7 cells were exposed to transfection complexes for 2 hours then maintained at 37° C., 5% CO2 for another 24 hrs before being harvested and processed for β-galactosidase enzyme assay. Numbers represent means±SD, n=3.
pCMVβ plasmid DNA was complexed to various amounts of polycationic peptide and then mixed with cationic liposome at a ratio of 1:3 (pCMVβ:liposome; w/w). After being washed briefly in serum free media, ND7 cells were exposed to the […] complexes for two hours and then returned to serum containing media Twenty-four hours later the cells were harvested and processed for β-galactosidase enzyme assay. Each condition was performed in triplicate and each experiment replicated three times. Numbers represent means±SD.
ND7s are a well-characterized cell line derived from the fusion of a neuroblastoma N18Tg2) with neonatal rat sensory neurons ^28. The cell line was maintained in normal growth media (NGM) (Leibovitz's L-15 media (BRL) enriched with 10% Fetal bovine serum (BRL), 4 g/L glucose, 4 g/L sodium bicarbonate (BRL), 100 IU/mL penicillin/streptomycin (BRL)) at 37° C. and 5% CO2. The cells were plated onto 24 well plates (Costar) at a density that produced 70% confluence after 24 hours.
Since initial experiments determined that the presence of fetal bovine serum inhibited transfection of ND7 cells serum-free differentiation media was used for all transfections. Various amounts of DNA and liposome were placed in the bottom of a 7 mL sterile Bijou container (Bibby Sterilin Ltd., Staffordshire, U.K.), but not in contact with each other.
DNA and liposomes were combined by the addition of 400 μL serum-free differentiation media and gentle shaking. The DNA: liposome mixture was incubated at room temperature for 20 to 30 minutes before being applied to the cells. The DNA/liposome mixture was then applied to the cells and incubated at 37° C., 5% CO2 for 2 hours after which this media was replaced with complete media Twenty four to 48 hours later the cells were fixed and processed for X-gal histochemistry as described ^31 or harvested for β-galactosidase enzyme assays (Promega Corp.).
Transfection complexes including the test peptides were generated in the following manner. Various amounts of peptide was placed in the bottom of sterile polystyrene containers alongside, but not in contact with 1 μg·pCMVβ and mixed by adding 400 μl serum free NGM media The complexes were incubated at room temperature for 10 minutes after which DC-Chol/DOPE was added. The pDNA/peptide/liposome complex was further incubated at room temperature for 20 minutes and then administered to cells as above.
We examined the ability of Mu1 and Vp1 to enhance the transfection of a neuronal cell line by cationic liposomes using a β-Galactosidase reporter gene assay. ND7 cells were transfected with pCMVβ complexed to varying amounts of peptide and DC-Chol/DOPE. We have previously shown that the cationic liposome DC-Chol/DOPE is capable of efficiently transfecting the neuronally derived ND7 cell line ^31. […] Temporally, maximal levels of transgene expression are obtained between 48-60 hours post transfection. Therefore, in order to maximize the chance of detecting improvements in transfection we performed all our assays within 12-20 hours of transfection at a time when levels of reporter gene expression were lower. Previously we found a pDNA: liposome ratio of 1:3 (w/w) optimal for transfections in ND7 cells ^31. […]

H-MRRAHHRRRRASHRRMRGG-OH [Mu1]
ratio of protein to pDNA giving slight retardation of supercoiled pDNA, relaxed form not altered (plasmid DNA (pCMVβ); 1 μg pCMVβ, 1% agarose gel): 0.25 w/w | ratio of protein to pDNA at or above which migration of both forms of pDNA was severely retarded (plasmid DNA (pCMVβ); 1 μg pCMVβ, 1x HBS, 1% agarose gel): ≥ 0.5 w/w | concentration retarding electrophoretic mobility of plasmid DNA relative to Vp1 (plasmid DNA (pCMVβ); Mu1 vs Vp1): 1/60 | concentration in solution, pDNA retardation (plasmid DNA (pCMVβ); gel retardation complexes, 20 μL): 25 ng/mL | concentration in solution, optimal transfections (ND7 cells; 12 μg Mu1/1 μg pCMVβ, 400 μL): 30 ng/mL | relative ratios pCMVβ/Mu1/(DC-Chol/DOPE) giving greatest improvement in transfection efficiencies (ND7 cells; 0.6-21 μg Mu1, 3-6 μg liposome per 1 μg pCMVβ tested): 1/12/6 | increase in transfections compared to DNA alone (ND7 cells; 1/12/6 pCMVβ/Mu1/(DC-Chol/DOPE) w/w/w): 11 fold | concentration of protein in the cellular lysates vs untransfected cells (ND7 cells; Mu1 complex (data not shown)): did not significantly vary | improvement in transfection efficiencies over naked DNA (ND7 cells; pCMVβ complexed to Mu1 alone, no liposome): No improvement in transfection efficiencies over naked DNA | effect on transfection efficiencies (ND7 cells; pDNA:Mu1 1:0.5 (w/w) with liposomes, initial experiments (not shown)): did not affect transfection efficiencies | improvement of cationic liposome mediated transfection efficiencies (ND7 cells; β-galactosidase activity, Mu1 with DC-Chol/DOPE vs liposome without Mu1): over 4 fold
